Laboratory results reported in patent US10449200B2, “Combined inhibition of the vitamin D receptor and poly(ADP) ribose polymerase (PARP) in the treatment of cancer” (Institute for Cancer Research, priority 2014, dated 2019).

Key:
BxPC3 cells [1] = experiment: Clonogenic survival assay, gemcitabine kill curves; format: cell-based, human
Method: (§1) Cell culture and chemicals. Panc1, BxPC3, and CFPAC1 cells were purchased from American Type Culture Collection (ATCC) and banked in house until use. Cell lines were cultured in DMEM/10% FBS supplemented with 2 mM glutamine and 1% penicillin, streptomycin, and kanamycin (PSK) and were maintained at 37° C. in 5% CO2. Charcoal stripped (in house cell culture facility) and dialyzed FBS (Life Technologies; 509 26400-036) were used. Gemcitabine was obtained from the in house pharmacy. Rucaparib and trichostatin A were gifts.
(§2) Cell viability assays. For clonogenic assays, 1000 cells per well were seeded into 6 well plates on day 0. Cells were treated with gemcitabine at various doses on day 1 for 24 hours, Gemcitabine was washed out on day 2, and cells were allowed to grow for a subsequent 10 days before being fixed (10% methanol+10% acetic acid) and stained with crystal violet (0.4% in 20% ethanol) for colony counting and quantitation. For Rucaparib clonogenic assays, the drug was added at various doses 24 hours after cell plating, and cells were allowed to grow for a subsequent 10 days in the presence of Rucaparib. For TSA clonogenic assays, the drug was added for 4 hours prior to addition of gemcitabine or vehicle for another 18 hours before drugs were washed away, and cells were allowed to grow in drug-free medium for 10 days.

Panc1 cells [2] = experiment: Time-lapse microscopy of H2B:gfp cells; format: cell-based, human; settings: gemcitabine 50 nM
Method: Microscopy. For timelapse studies, Panc1 cells with stable expression of Histone H2B fused at its C-terminus to GFP were seeded into 6-well plates. 24 hours post cell plating, gemcitabine (50 nM) was added before timelapse was commenced. The plate was placed in a 37° C. chamber; bright-field and fluorescent images were taken every 5 minutes for 48 hours using a Nikon TE2000S microscope controlled by Metamorph (Molecular Devices). Three independent movies were conducted for each condition. Movies were allowed to commence for 48 hours for each independent experiment.
Time-lapse microscopy was used to track the fates of gemcitabine-treated Panc1 cells that stably expressed a H2B:gfp fusion protein that labeled chromosomes. Cells were transfected with siRNAs, treated with vehicle or gemcitabine and monitored every 10 minutes for 48 hours (FIG. 2).

BxPC3 cells [3] = experiment: Western blot of Rad51 and γH2AX in supernatant and chromatin fractions; format: cell-based, human; settings: gemcitabine for 18 hours
Method: (§3) Western Blotting. BxPC3, Panc1, and CFPAC1 cells were treated with vehicle or gemcitabine (50 nM) for 18 hrs. Cells were harvested, washed in PBS and lysed in NP40 lysis buffer (1% NP40/PBS/10% glycerol) with protease and phosphatase inhibitors. Protein concentrations were determined with MicroBCA Assay (Pierce Biotechnology; 23224 and 23228) and then SDS sample buffer was added to the lysates. 40 μg of boiled lysates was separated by SDS-PAGE and then transferred onto Immobilon P membrane (Millipore; IPVH00010). Antibodies used for immunoblotting were obtained from: VDR (Epitomics; 3277-1), γH2AX (Upstate Biotechnologies, now Millipore; 05-636), Rad51 (Genetex; GTX70230, gift), p300 (Santa Cruz Biotechnologies; SC-584), and TAO1 kinase (Bethyl Labs; A300-524A).

Panc1 cells [4] = experiment: Immunofluorescence of DNA damage foci (phospho-γH2AX, Rad51) after gemcitabine; format: cell-based, human
Method: For Immunofluorescence, cells were plated onto coverslips 24 hours pre-gemcitabine treatment. At different timepoints post gemcitabine treatment, cells were permeablized, fixed (4% paraformaldehyde) and stained. Antibodies to γH2AX (Millipore; 05-636), Rad51 (a gift), and 53BP1 were used. Alexa Fluor-conjugated (488, 555, and 647 nm) secondary antibodies (Molecular probes; A-11029, A-21428, A-21247) were used at a final concentration of 1 and nuclei counterstained with DAPI. Images were captured using a 40× or 63× high NA objective mounted on a semi-automated inverted microscope (Nikon TEi) with a charge-coupled device camera (Photometrics1394) using Nikon Elements 2.0. Exposure times for antibodies were optimized for control samples and identical exposure times used for the experimental samples. Images were quantitated and analyzed using Nikon Elements 2.0. Confocal images were taken using a Leica TCS-SP8 microscope controlled by LAS software (Leica Microsystems).
It was investigated if these repair pathways were abrogated after VDR knockdown by staining for foci formation by phospho-γH2AX, Rad51, and 53BP1, and measuring intensities after gemcitabine treatment (FIGS. 3, 4, and 5). BxPC3 (high VDR expression) and Panc1 (low VDR expression) cells were treated with gemcitabine (50 nM) for 2, 4, 8, and 18 hours, and fixed and stained for phospho-γH2AX, 53BP1, and Rad51. Foci quantitation included counting of nuclei with >5 foci and a separate measurement of the sum intensities of foci that were averaged for 5 separate immunofluorescence experiments.

BxPC3 cells [5] = experiment: TSA clonogenic assay (TSA + gemcitabine); format: cell-based; settings: Homo sapiens
Method: as §2
To test the functional relevance of the TSA mediated Rad51 foci formation in the VDR knockdown cells, whether TSA altered the sensitivity to gemcitabine was investigated. […] Parental cell sensitivity to gemcitabine was increased by TSA treatments at the concentrations tested (p=0.02).

Panc1 cells [6] = experiment: Clonogenic survival assay, gemcitabine; format: cell-based, human; settings: for IC50: Homo sapiens
Method: as §1, §2

VDR = experiment: Western blot of VDR expression after gemcitabine; format: cell-based, human; settings: gemcitabine 50 nM 18 hrs
Method: as §3
Next, the levels of VDR protein were compared in BxPC3, CFPAC1, and Panc1 cells to see if the amount of expression might correlate with gemcitabine sensitivity.

Q: What does the source list for `Nc1ccn([C@@H]2O[C@H](CO)[C@@H](O)C2(F)F)c(=O)n1` [gemcitabine]?
A: reduction in gemcitabine IC50 after depletion of VDR (BxPC3 cells [1]; BXPC3 cells): ~3 fold; IC50 (BxPC3 cells [1]; BxPC3 VDRkd cells transfected with WT-VDR, read-out: IC50 gemcitabine): ~260 nM; IC50 (BxPC3 cells [1]; Homo sapiens, BXPC-3, BxPC3, VDR siRNA, read-out: mean IC50 gemcitabine): ~60 nM; IC50 (BxPC3 cells [1]; Homo sapiens, BXPC-3, BxPC3, control shRNA, read-out: IC50 gemcitabine): ~80 nM; IC50 (BxPC3 cells [1]; Homo sapiens, BXPC-3, BxPC3, control siRNA, read-out: mean IC50 gemcitabine): ~200 nM; IC50 (BxPC3 cells [1]; Homo sapiens, BXPC-3, BxPC3, p300 shRNA, read-out: IC50 gemcitabine): ~40 nM; IC50 (BxPC3 cells [1]; Homo sapiens, BXPC-3, BxPC3 VDRkd cells transfected with WT-VDR, read-out: IC50 gemcitabine): ~300 nM; IC50 (BxPC3 cells [1]; Homo sapiens, BXPC-3, BxPC3 VDRkd cells, WT-VDR co-transfected with AML1/ETO, read-out: IC50 gemcitabine): ~80 nM; IC50 (BxPC3 cells [1]; Homo sapiens, BXPC-3, BxPC3 VDRkd cells, WT-VDR co-transfected with S237M mutant, read-out: IC50 gemcitabine): ~60 nM; IC50 (BxPC3 cells [1]; Homo sapiens, BXPC-3, BxPC3 VDRkd cells, untransfected, read-out: IC50 gemcitabine): ~50 nM; IC50 (BxPC3 cells [1]; Homo sapiens, BXPC-3, BxPC3 VDRkd cells, vector transfected, read-out: IC50 gemcitabine): ~50 nM; IC50 (BxPC3 cells [1]; Homo sapiens, BXPC-3, BxPC3 cells (highest VDR levels), read-out: mean IC50 gemcitabine): ~200 nM; increase of gemcitabine IC50 over vector controls (BxPC3 cells [1]; wild type VDR transfected into VDR depleted BXPC3 cells): ~6 fold; cell fate in 48 hour timelapse (Panc1 cells [2]; Panc1, Chk1 knockdown): enter mitosis where many died or died shortly after exit from mitosis; cell fate in 48 hour timelapse (Panc1 cells [2]; Panc1, VDR siRNA): never entered mitosis, but nevertheless died; cell fate in 48 hour timelapse (Panc1 cells [2]; Panc1, control siRNA): stopped proliferation; Rad51 and H2AX in whole cell extracts (supernatants), parental versus BxPC3 VDRkd (BxPC3 cells [3]): equivalent amounts; Rad51 and phospho-γH2AX in chromatin fractions, VDRkd compared to parental BxPC3 (BxPC3 cells [3]): very low amounts; time until Rad51 foci visible after gemcitabine (Panc1 cells [4]; Panc1, gemcitabine 50 nM): 18 h; time until phospho-γH2AX foci form after gemcitabine (Panc1 cells [4]; Panc1, gemcitabine 50 nM): 18 h; time until phospho-γH2AX and Rad51 foci after gemcitabine addition (Panc1 cells [4]; Panc1 transfected with VDR siRNA): 18 h; time until phospho-γH2AX and Rad51 foci after gemcitabine addition (Panc1 cells [4]; Panc1 transfected with control): ~8 h; IC50 (BxPC3 cells [5]; BXPC-3, BxPC3 VDRkd cells, with TSA (500 nM), read-out: IC50 of gemcitabine): 50 nM; IC50 (BxPC3 cells [5]; BXPC-3, BxPC3 VDRkd cells, without TSA, read-out: IC50 of gemcitabine): 50 nM; IC50 (BxPC3 cells [5]; BXPC-3, BxPC3 parental cells, gemcitabine alone, read-out: IC50 gemcitabine): ~200 nM; IC50 (BxPC3 cells [5]; BXPC-3, BxPC3 parental cells, gemcitabine plus TSA (500 nM), read-out: IC50 gemcitabine): 100 nM; IC50 (Panc1 cells [6]; PANC-1, Panc1, VDR knockdown (siRNA)): ~18 nM; IC50 (Panc1 cells [6]; PANC-1, Panc1, control cells (control shRNA)): ~19 nM; IC50 (Panc1 cells [6]; PANC-1, Panc1, control transfected): ~30 nM; IC50 (Panc1 cells [6]; PANC-1, Panc1, p300 knockdown): ~16 nM; IC50 (Panc1 cells [6]; PANC-1, Panc1 transfected with WT-VDR (overexpression)): ~250 nM; IC50 (Panc1 cells [6]; PANC-1, Panc1 transfected with vector): ~25 nM; IC50 (Panc1 cells [6]; PANC-1, Panc1 cells): ~30 nM; cells survived (colony formation) compared to control samples treated with gemcitabine (Panc1 cells [6]; Panc1, Chk1 siRNA, 50 nM gemcitabine 24 hours): 3%; cells survived (colony formation) compared to control samples treated with gemcitabine (Panc1 cells [6]; Panc1, VDR siRNA, 50 nM gemcitabine 24 hours): 8%; colony formation, vehicle versus gemcitabine (Panc1 cells [6]; Panc1, control siRNA, 50 nM gemcitabine 24 hours): did not differ significantly; increase of gemcitabine IC50 over controls (Panc1 cells [6]; Panc1 cells with increased VDR levels): ~10 fold; VDR levels after overnight treatment with gemcitabine (VDR; BXPC3 cells): No noticeable increase; VDR levels after overnight treatment with gemcitabine (VDR; CFPAC1 cells): increased; VDR levels after overnight treatment with gemcitabine (VDR; Panc1 cells): increased
